Values quoted from earlier work, collected in patent publication US6916809B2, “Heterocyclic acridone inhibitors of IMPDH enzyme” (Bristol-Myers Squibb Company, priority 2001, dated 2005).
Read-outs that look alike come from different tables or passages of the source.

Tests used:
[1] = system: antigen-specific T lymphocyte responses; details: for synergistic effect with Rol on inhibition of antigen-induced proliferation: combined with Rol 10^-7 M; for % inhibition of proliferation: synergistic combination of rolipram and MPA; for approximate IC10: antigen-induced proliferation, Canelos et al. 2001
IMPDH types I and II = details: low and high concentrations
IL-2, IL-4, and IFN = details: Rol 10^-7 M, MPA 10^-8 M

Structure (SMILES) | synergistic effect with Rol on inhibition of antigen-induced proliferation [1] | % inhibition of proliferation ([1]; with deoxyguanosine (reversal), p<0.05) [%] | % inhibition of proliferation ([1]; without deoxyguanosine) [%] | gene expression for IMPDH types I and II (IMPDH types I and II) | downregulation in the generation of proinflammatory cytokines (IL-2, IL-4, and IFN) | approximate IC10 [1]
COc1c(C)c2c(c(O)c1C/C=C(\C)CCC(=O)O)C(=O)OC2 [MPA, mycophenolic acid] | marked synergistic effect | 35±12 | 81±16 | remained unaffected | no significant downregulation | 
COc1ccc(C2CNC(=O)C2)cc1OC1CCCC1 (stereo not shown) [Rol, 4-[3-(cyclopentyloxy)-4-methoxy-phenyl]-2-pyrrolidinone] |  |  |  | remained unaffected | no significant downregulation | ~10^−7 M
CCCC(=O)Nc1ncnc2c1ncn2[C@@H]1O[C@@H]2COP(=O)(O)O[C@H]2[C@H]1OC(=O)CCC [dibuteryl-cAMP] |  |  |  |  |  | ~2e-06 M
C=CC[C@@H]1/C=C(\C)C[C@H](C)C[C@H](OC)[C@H]2O[C@@](O)(C(=O)C(=O)N3CCCC[C@H]3C(=O)O[C@H](/C(C)=C/[C@@H]3CC[C@@H](O)[C@H](OC)C3)[C@H](C)[C@@H](O)CC1=O)[C@H](C)C[C@@H]2OC [tacrolimus] | little or no synergistic effect |  |  |  |  | 
